Data as given in patent US20230257396A1, “MACROCYCLES AND THEIR USE” (BLOSSOMHILL THERAPEUTICS, INC., priority 2020, published 2023).
Substitutions are numbered along the chain they refer to.

What was measured:
Assay in all cases: KINOMEscan kinase binding assay (Eurofins/DiscoveRx), % Ctrl
[1] = target: T1, kinases (Homo sapiens, UniProt P10721); conditions: 1 μM
T1 construct: purchased Eurofins/DiscoveRx; host or cells: E. coli BL21-derived host (T7 phage display) for most kinases; HEK-293 for the rest
In short: (§1)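 Competition binding: DNA- or phage-tagged kinases (T7 phage in E. coli BL21, or HEK-293-expressed) with immobilized biotinylated ligand beads and test compound, 1 h at room temperature. Bead-bound kinase eluted and quantified by qPCR; % Ctrl = (compound − positive control)/(negative control − positive control) ×100 at a single compound concentration.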

[2] = target: T2, kinases (Homo sapiens, UniProt P36888, N841I); conditions: 1 μM; FLT3(N841I)
T2 construct: purchased Eurofins/DiscoveRx; host or cells: E. coli BL21-derived host (T7 phage display) for most kinases; HEK-293 for the rest
T2 sequence (P36888 27-993 N841I): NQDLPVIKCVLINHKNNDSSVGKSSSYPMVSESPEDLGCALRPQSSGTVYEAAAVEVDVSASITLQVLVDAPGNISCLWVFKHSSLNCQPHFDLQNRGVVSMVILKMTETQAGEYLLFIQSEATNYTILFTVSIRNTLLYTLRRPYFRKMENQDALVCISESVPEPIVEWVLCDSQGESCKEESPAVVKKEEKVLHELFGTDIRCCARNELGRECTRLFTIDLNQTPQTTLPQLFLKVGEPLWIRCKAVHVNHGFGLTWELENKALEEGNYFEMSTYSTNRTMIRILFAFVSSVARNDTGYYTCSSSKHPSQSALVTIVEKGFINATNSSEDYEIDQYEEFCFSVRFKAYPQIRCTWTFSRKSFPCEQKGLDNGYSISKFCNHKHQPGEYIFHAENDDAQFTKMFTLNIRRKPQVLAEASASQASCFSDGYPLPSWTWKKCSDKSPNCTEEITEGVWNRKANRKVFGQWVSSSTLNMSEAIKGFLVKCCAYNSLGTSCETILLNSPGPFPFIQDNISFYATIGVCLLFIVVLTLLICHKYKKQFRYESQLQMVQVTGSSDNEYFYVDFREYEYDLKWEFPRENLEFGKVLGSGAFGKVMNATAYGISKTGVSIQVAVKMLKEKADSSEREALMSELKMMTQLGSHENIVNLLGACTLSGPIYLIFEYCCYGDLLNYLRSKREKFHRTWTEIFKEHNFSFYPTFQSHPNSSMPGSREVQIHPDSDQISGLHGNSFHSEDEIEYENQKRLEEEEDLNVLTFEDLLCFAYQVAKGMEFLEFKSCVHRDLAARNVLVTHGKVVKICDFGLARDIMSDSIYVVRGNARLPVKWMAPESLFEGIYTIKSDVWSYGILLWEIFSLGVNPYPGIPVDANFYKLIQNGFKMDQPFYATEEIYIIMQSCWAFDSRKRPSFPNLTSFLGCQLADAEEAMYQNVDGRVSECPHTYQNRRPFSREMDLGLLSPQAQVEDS
In short: as §1

[3] = target: T3, kinases (Homo sapiens, UniProt P36888); conditions: 1 μM
T3 construct: purchased Eurofins/DiscoveRx; host or cells: E. coli BL21-derived host (T7 phage display) for most kinases; HEK-293 for the rest
T3 sequence (P36888 27-993): T2 sequence (P36888 27-993 N841I) with I815N
In short: as §1

[4] = target: T4, kinases (Homo sapiens, UniProt P16234); conditions: 1 μM; PDGFRA
T4 construct: purchased Eurofins/DiscoveRx; host or cells: E. coli BL21-derived host (T7 phage display) for most kinases; HEK-293 for the rest
In short: as §1

[5] = target: T5, kinases (Homo sapiens, UniProt P07949, M918T); conditions: 1 μM; RET(M918T)
T5 construct: purchased Eurofins/DiscoveRx; host or cells: E. coli BL21-derived host (T7 phage display) for most kinases; HEK-293 for the rest
In short: as §1

[6] = target: T6, kinases (Homo sapiens, UniProt P10721, L576P); conditions: 1 μM; KIT(L576P)
T6 construct: purchased Eurofins/DiscoveRx; host or cells: E. coli BL21-derived host (T7 phage display) for most kinases; HEK-293 for the rest
In short: as §1

T5 sequence (P07949 29-1114 M918T): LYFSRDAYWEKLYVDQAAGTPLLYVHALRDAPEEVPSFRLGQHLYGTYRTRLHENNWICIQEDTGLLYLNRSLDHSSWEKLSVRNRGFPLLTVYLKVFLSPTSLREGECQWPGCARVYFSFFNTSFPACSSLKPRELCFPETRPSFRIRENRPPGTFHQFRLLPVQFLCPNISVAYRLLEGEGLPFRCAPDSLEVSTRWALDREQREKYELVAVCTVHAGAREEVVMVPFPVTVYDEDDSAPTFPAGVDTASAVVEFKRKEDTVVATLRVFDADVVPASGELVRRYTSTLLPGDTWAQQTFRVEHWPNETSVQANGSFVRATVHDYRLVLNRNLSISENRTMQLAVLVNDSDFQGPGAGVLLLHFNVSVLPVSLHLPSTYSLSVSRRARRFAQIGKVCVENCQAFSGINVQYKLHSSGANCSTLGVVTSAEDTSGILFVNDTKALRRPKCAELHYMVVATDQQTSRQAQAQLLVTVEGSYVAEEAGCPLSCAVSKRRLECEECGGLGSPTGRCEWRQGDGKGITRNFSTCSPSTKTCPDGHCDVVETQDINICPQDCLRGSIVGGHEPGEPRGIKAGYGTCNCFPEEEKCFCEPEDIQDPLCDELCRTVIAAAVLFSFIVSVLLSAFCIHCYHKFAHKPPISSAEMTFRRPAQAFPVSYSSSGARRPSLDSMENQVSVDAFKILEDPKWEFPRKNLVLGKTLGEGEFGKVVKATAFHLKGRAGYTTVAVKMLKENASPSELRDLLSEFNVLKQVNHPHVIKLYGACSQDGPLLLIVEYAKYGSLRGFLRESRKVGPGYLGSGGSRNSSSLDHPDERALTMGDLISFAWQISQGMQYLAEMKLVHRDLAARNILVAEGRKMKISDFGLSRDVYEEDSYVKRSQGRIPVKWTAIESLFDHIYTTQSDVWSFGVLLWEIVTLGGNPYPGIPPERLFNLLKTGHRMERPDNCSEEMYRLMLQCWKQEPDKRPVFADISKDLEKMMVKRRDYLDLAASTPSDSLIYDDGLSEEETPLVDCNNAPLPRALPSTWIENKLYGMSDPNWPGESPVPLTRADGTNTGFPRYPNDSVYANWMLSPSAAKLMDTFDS
T6 sequence (P10721 26-976 L576P): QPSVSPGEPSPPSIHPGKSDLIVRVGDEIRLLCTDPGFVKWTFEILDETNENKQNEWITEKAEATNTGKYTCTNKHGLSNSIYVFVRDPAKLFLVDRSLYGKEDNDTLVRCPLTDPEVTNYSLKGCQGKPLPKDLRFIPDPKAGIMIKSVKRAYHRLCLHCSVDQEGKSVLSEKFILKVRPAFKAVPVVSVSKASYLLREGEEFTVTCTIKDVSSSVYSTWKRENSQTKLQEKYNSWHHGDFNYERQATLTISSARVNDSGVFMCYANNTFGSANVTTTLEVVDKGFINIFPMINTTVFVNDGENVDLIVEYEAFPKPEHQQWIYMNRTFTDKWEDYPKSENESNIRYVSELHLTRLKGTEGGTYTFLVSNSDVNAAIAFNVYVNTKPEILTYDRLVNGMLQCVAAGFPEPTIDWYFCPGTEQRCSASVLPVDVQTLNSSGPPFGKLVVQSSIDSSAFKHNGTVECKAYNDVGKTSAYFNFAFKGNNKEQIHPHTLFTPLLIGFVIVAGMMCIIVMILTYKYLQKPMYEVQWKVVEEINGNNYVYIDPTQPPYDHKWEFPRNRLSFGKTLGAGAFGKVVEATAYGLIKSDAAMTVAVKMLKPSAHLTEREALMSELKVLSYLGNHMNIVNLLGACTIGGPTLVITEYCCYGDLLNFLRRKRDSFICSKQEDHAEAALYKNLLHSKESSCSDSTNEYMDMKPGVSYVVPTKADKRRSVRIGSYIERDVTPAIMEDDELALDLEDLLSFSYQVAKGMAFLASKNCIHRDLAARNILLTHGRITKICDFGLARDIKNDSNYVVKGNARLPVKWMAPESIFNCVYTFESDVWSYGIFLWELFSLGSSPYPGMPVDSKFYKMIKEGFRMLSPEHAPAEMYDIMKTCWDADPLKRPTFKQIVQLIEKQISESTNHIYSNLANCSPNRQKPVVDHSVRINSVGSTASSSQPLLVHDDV
T1 sequence (P10721 26-976): as the sequence (P10721 26-976 L576P) above, with P551L counted along it
T4 sequence (P16234 24-1089): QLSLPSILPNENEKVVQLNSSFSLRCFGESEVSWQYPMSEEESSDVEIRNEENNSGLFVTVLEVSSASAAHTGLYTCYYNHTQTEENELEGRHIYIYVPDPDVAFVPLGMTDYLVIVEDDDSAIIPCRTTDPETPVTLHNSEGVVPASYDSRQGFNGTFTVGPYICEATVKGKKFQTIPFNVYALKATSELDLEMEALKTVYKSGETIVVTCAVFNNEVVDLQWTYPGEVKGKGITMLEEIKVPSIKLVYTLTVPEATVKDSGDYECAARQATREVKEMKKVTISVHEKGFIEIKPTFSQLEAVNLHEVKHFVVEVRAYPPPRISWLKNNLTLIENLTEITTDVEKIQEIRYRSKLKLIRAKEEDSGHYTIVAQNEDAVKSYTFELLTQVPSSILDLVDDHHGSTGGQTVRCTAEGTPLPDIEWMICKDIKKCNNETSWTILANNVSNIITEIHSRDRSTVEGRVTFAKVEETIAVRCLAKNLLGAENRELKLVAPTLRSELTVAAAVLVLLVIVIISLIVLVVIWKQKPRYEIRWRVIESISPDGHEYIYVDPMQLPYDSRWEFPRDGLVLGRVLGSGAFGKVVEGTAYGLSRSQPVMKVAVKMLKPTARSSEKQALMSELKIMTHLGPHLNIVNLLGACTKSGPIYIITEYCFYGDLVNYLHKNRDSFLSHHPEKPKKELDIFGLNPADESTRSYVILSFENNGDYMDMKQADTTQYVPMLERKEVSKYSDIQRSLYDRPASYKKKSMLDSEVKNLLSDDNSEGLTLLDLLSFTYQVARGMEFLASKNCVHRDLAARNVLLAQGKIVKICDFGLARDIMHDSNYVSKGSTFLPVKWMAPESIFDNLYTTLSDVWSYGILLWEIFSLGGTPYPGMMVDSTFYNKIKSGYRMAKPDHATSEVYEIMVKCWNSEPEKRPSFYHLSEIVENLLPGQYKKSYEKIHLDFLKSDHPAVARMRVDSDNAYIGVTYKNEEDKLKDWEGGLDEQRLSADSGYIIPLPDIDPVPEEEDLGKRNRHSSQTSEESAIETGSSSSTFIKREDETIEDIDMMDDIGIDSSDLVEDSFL

Row | % Ctrl, KIT [1] [% Ctrl] | % Ctrl, KIT-autoinhibited [1] [% Ctrl] | % Ctrl, FLT3(N841I) [2] [% Ctrl] | % Ctrl, FLT3 [3] [% Ctrl] | % Ctrl, FLT3-autoinhibited [3] [% Ctrl] | % Ctrl, PDGFRA [4] [% Ctrl] | % Ctrl, RET(M918T) [5] [% Ctrl] | % Ctrl, KIT(L576P) [6] [% Ctrl] | Structure (SMILES)
1 | 100 | 100 | 65 | 81 | 100 | 100 | 92 | 84 | Cc1cc2c([nH]1)/C=C1\C(=O)Nc3ccc(nc31)-c1ccccc1OCCCNC2=O [Ex.22, [3a(4)Z]-6-methyl-9,10,11,12-tetrahydro-1,18-(ethanediylidene)dipyrrolo[3,2-g:3′,4′-j][1,5,12]benzoxadiazacyclopentadecine-3,8(2H,5H)-dione]
2 | 90 | 86 | 83 | 100 | 85 | 89 | 97 | 100 | Cc1cc2c([nH]1)/C=C1\C(=O)Nc3ccc(cc31)-c1ccnn1CCOCCNC2=O [Ex.39, [19a(20)Z]-2-methyl-6,7,9,10-tetrahydro-1H-15,17-(ethanediylidene)pyrazolo[1,5-d]dipyrrolo[3,4-h:2′,3′-k][1,4,14]oxadiazacyclohexadecine-4,19(5H,18H)-dione]
3 | 100 | 100 | 75 | 93 | 100 | 100 | 91 | 100 | Cc1cc2c([nH]1)/C=C1\C(=O)Nc3cnc(nc31)N(C)CCCOCCN(C)C2=O [Ex.71, [17a(18)Z]-2,5,12-trimethyl-6,7,9,10,11,12-hexahydro-1H-13,15-(azenometheno)dipyrrolo[3,2-f:3′,4′-i][1,4,11,13]oxatriazacyclohexadecine-4,17(5H,16H)-dione]
4 | 82 | 73 | 0 | 11 | 38 | 52 | 7 | 14 | Cc1cc2c([nH]1)/C=C1\C(=O)Nc3ccc(cc31)OCCOCCN(C)C2=O [Ex.91, [16a(17)Z]-2,5-dimethyl-6,7,9,10-tetrahydro-1H-12,14-(ethanediylidene)dipyrrolo[3,2-i:3′,4′-l][1,4,7]dioxazacyclopentadecine-4,16(5H,15H)-dione]
5 | 99 | 100 | 14 | 45 | 95 | 95 | 76 | 98 | Cc1cc2c([nH]1)/C=C1\C(=O)Nc3ccc(cc31)CN(C)C(=O)COCCNC2=O [Ex.111, [17a(18)Z]-2,11-dimethyl-6,7,11,12-tetrahydro-1H-13,15-(ethanediylidene)dipyrrolo[3,2-f:3′,4′-i][1,4,14]oxadiazacyclohexadecine-4,10,17(5H,9H,16H)-trione]
6 | 97 | 97 | 95 | 87 | 100 | 100 | 89 | 97 | Cc1cc2c([nH]1)/C=C1\C(=O)Nc3cnc(cc31)-c1cnn(C)c1COCCNC2=O [Ex.123, [3a(4)Z]-6,14-dimethyl-10,11,13,14-tetrahydro-2H-17,1-(azenometheno)pyrazolo[4,3-m]dipyrrolo[3,2-f:3′,4′-i][1,4]oxazacyclopentadecine-3,8(5H,9H)-dione]
